# Results from publication PMC7717712, “The effects of cardiac drugs on human erythrocyte carbonic anhydrase I and II isozymes” (Journal of Enzyme Inhibition and Medicinal Chemistry, 2020).
# Entries after “also recorded” stand apart in the source; their conditions may differ. Structures can show the parent of a compound that is named as a salt.
# What was measured:
# [1] = target: T1, human carbonic anhydrase II (hCA II) (Homo sapiens, UniProt P00918); test: CO2 hydratase activity assay (Maren method), hCA II; type: biochemical
# T1 construct: from tissue
# Procedure: (§1) Blood samples (25 ml) from healthy human volunteers were collected. They were centrifuged at 1000g for 20 min at 4 °C, and the supernatant was removed. The packed erythrocytes were washed three times with 0.9% NaCl and then were hemolyzed in cold water. The pH of the hemolysate was adjusted to 8.5 with the solid Tris base. The 25-ml hemolysate was applied to an affinity column containing y Sepharose 4B-ethylene diamine-4-isothiocyanato-benzenesulfonamide[14]. CA isozymes were then eluted with 0.1 M NaCl/25 mM Na2HPO4 (pH 6.3) and 0.1 M CH3COONa/0.5 M NaClO4 (pH 5.6), which recovered hCA I and II, respectively.
# (§2) CA activity was measured by the Maren method based on the determination of the time required for the pH to decrease from 10.0 to 7.4 due to CO2 hydration. The assay solution was 0.5 M Na2CO3/0.1 M NaHCO3 (pH 10.0), and phenol red was added as the pH indicator. Carbon dioxide-hydratase activity was calculated in enzyme units (EU) with the following equation: t0 – tc/tc, where t0 and tc are the times for the pH change of the nonenzymatic and the enzymatic reactions, respectively.
# (§3) The drugs were triturated in a porcelain mortar pestle. Stock solutions of both drugs were prepared in dimethyl sulfoxide (DMSO). Different concentrations of the drugs were added to the enzyme activity determination medium with a total volume of 4.2 ml. The duration (in seconds) of the colour change from red to yellow in solution was measured in a 10-ml glass tube with a diameter of 1 cm. Control cuvette activity in the absence of the inhibitor was set at 100%. All compounds were tested in triplicate at each concentration used. For each inhibitor, an activity %–[inhibitor] graph was drawn (data not shown).
# [2] = target: T2, human carbonic anhydrase I (hCA I) (Homo sapiens, UniProt P00915); test: CO2 hydratase activity assay (Maren method), hCA I; type: biochemical
# T2 construct: from tissue
# Procedure: as §1, §2, §3
# [3] = target: T2, human carbonic anhydrase I (hCA I); test: Esterase activity assay (4-nitrophenyl-acetate), hCA I; type: biochemical
# Procedure: (§4) Blood samples (25 ml) from healthy human volunteers were collected. They were centrifuged at 1000g for 20 min at 4 °C, and the supernatant was removed. The packed erythrocytes were washed three times with 0.9% NaCl and then were hemolyzed in cold water. The pH of the hemolysate was adjusted to 8.5 with the solid Tris base. The 25-ml hemolysate was applied to an affinity column containing y Sepharose 4B-ethylene diamine-4-isothiocyanato-benzenesulfonamide[14].
# (§5) The inhibitory effects of the drugs on enzyme activities were tested under in vitro conditions.
# [4] = target: T1, human carbonic anhydrase II (hCA II); test: Esterase activity assay (4-nitrophenyl-acetate), hCA II; type: biochemical
# Procedure: as §4, §5
# [5] = test system: CA-I levels / atherosclerosis; parameters: method as in PMID 31354482; conditions: cited from earlier work
# [6] = target: glucose-6-phosphate dehydrogenase; parameters: method as in PMID 29947262; conditions: cited from earlier work
# [7] = test system: 15 hCA isoforms (hCA I–XIV); conditions: cited from earlier work
# CYP3A4 = test system: CYP3A4; parameters: method as in earlier work; conditions: concentration-dependent; read-out: IC50, CYP3A4 enzyme activity; cited from earlier work
# aldehyde oxidase = test system: aldehyde oxidase; parameters: method as in PMID 14681337; conditions: read-out: aldehyde oxidase inhibition (concentration printed without endpoint name); cited from earlier work
# [8] = esterase method, 4-nitrophenyl-acetate, 348 nm, 25 °C, read-out: IC50 (esterase) hCA I
# [9] = hydratase method, enzyme purified from human erythrocytes, read-out: IC50 (hydratase) hCA II
# [10] = hydratase method, enzyme purified from human erythrocytes, read-out: IC50 (hydratase) hCA I
# [11] = esterase method, 4-nitrophenyl-acetate, 348 nm, 25 °C, read-out: IC50 (esterase) hCA II
# T2 sequence (P00915 whole entry): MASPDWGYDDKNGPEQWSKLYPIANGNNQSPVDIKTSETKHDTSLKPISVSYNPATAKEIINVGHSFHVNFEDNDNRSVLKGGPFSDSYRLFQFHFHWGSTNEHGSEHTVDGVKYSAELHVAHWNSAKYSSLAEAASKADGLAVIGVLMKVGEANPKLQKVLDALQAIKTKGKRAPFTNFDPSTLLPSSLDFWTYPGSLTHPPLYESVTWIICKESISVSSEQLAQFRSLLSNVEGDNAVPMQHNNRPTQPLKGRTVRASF
Compound,"IC50 [3, 8]","IC50 [1, 9]","IC50 [2, 10]","IC50 [4, 11]",other results
O=[N+]([O-])OCC(CO[N+](=O)[O-])O[N+](=O)[O-] [Glyceryl trinitrate],,,,,IC50 [1]: 272 µM; IC50 [2]: 220 µM
COC(=O)[C@H](c1ccccc1Cl)N1CCc2sccc2C1 [Clopidogrel],94 µM,364 µM,250 µM,103 µM,
CC(=O)/N=c1/sc(S(N)(=O)=O)nn1C [methazolamide],,,,,CA-I levels / CA-I expression ([5]; animal atherosclerosis model): decreased CA-I levels; also recorded: suppresses CA-I expression; atherosclerosis [5]: significantly reduces atherosclerosis
COc1cc2nc(N3CCN(C(=O)C4COc5ccccc5O4)CC3)nc(N)c2cc1OC (stereo not shown) [Doxazosin mesylate],303 µM,215 µM,228 µM,417 µM,
CCOC(=O)[C@H](CCc1ccccc1)N[C@@H](C)C(=O)N1[C@H](C(=O)O)C[C@@H]2CCC[C@@H]21 [Ramipril],32.3 µM,154 µM,281 µM,37.9 µM,
COC(=O)C1=C(C)NC(C)=C(C(=O)OC(C)(C)CN(C)CCC(c2ccccc2)c2ccccc2)C1c1cccc([N+](=O)[O-])c1 (stereo not shown) [Lercanidipine hydrochloride],294 µM,159 µM,201 µM,423 µM,
CCCSc1nc(N[C@@H]2C[C@H]2c2ccc(F)c(F)c2)c2nnn([C@@H]3C[C@H](OCCO)[C@@H](O)[C@H]3O)c2n1 [Ticagrelor],54 µM,195 µM,168 µM,52.1 µM,
COc1ccc([C@@H]2Sc3ccccc3N(CCN(C)C)C(=O)[C@@H]2OC(C)=O)cc1 [Diltiazem],232 µM,477 µM,624 µM,325 µM,
CCCCc1oc2ccccc2c1C(=O)c1cc(I)c(OCCN(CC)CC)c(I)c1 [Amiodorane hydrochloride],8.47 µM,405 µM,389 µM,12.4 µM,
O=[N+]([O-])O[C@@H]1CO[C@H]2[C@@H]1OC[C@@H]2O [Isosorbide mononitrate],,,,,IC50 [3]: 6.08 µM; IC50 [1]: 160 µM; IC50 [2]: 160 µM; IC50 [4]: 5.5 µM
OC(CNCC(O)C1CCc2cc(F)ccc2O1)C1CCc2cc(F)ccc2O1 (stereo not shown) [Nebivolol hydrochloride],404 µM,95.3 µM,73.7 µM,410 µM,
CC(C)NCC(O)COc1cccc2ccccc12 (stereo not shown) [Propranolol],,,1.77 µM,,
CC(=O)Oc1ccccc1C(=O)O [Acetylsalicylic acid],43 µM,,252 µM,,
C[C@H](CS)C(=O)N1CCC[C@H]1C(=O)O [Captopril],1.58 µM,131 µM,121 µM,6.25 µM,
COc1ccc(-n2nc(C(N)=O)c3c2C(=O)N(c2ccc(N4CCCCC4=O)cc2)CC3)cc1 [Apixaban],384 µM,110 µM,88.4 µM,386 µM,
CCCCCCOC(=O)NC(=N)c1ccc(NCc2nc3cc(C(=O)N(CCC(=O)OCC)c4ccccn4)ccc3n2C)cc1 [Dabigatran etexilate],15.3 µM,116 µM,113 µM,15.3 µM,
NS(=O)(=O)c1cc(C(=O)O)c(NCc2ccco2)cc1Cl [Furosemide],,,,,IC50 [6]: 526 µM

Compound,"IC50 [3, 8]","IC50 [1, 9]","IC50 [2, 10]","IC50 [4, 11]",other results
CC(C)c1c(C(=O)Nc2ccccc2)c(-c2ccccc2)c(-c2ccc(F)cc2)n1CC[C@@H](O)C[C@@H](O)CC(=O)O [Atorvastatin],7.75 µM,390 µM,243 µM,9.85 µM,inhibition of the 15 hCA isoforms (hCA I–XIV) [7]: submicromolar–low nanomolar inhibition; IC50 (CYP3A4): […]
COc1ccc(CN2CCNCC2)c(OC)c1OC [Trimetazidine dihydrochloride],112 µM,151 µM,196 µM,112 µM,
C[C@H]1O[C@@H](O[C@H]2[C@@H](O)C[C@H](O[C@H]3[C@@H](O)C[C@H](O[C@H]4CC[C@@]5(C)[C@H](CC[C@@H]6[C@@H]5C[C@@H](O)[C@]5(C)[C@@H](C7=CC(=O)OC7)CC[C@]65O)C4)O[C@@H]3C)O[C@@H]2C)C[C@H](O)[C@@H]1O [Digoxin],23.1 µM,88 µM,74.9 µM,32.8 µM,
COc1cc2c(cc1OC)CC(=O)N(CCCN(C)C[C@H]1Cc3cc(OC)c(OC)cc31)CC2 [Ivabradine],107 µM,,,117 µM,
CCN(CC)CC(=O)Nc1c(C)cccc1C [Lidocaine HCl],,2 µM,19.6 µM,,
CC(C)NCC(O)COc1ccc(COCCOC(C)C)cc1 (stereo not shown) [Bisoprolol hemifumarate],156 µM,221 µM,107 µM,244 µM,
CCOC(=O)C1=C(C)NC(C)=C(C(=O)OCC)C1c1ccccc1/C=C/C(=O)OC(C)(C)C [Lacidipine],150 µM,482 µM,696 µM,155 µM,
CCCNCC(O)COc1ccccc1C(=O)CCc1ccccc1 (stereo not shown) [Propafenone],2.8 µM,235 µM,228 µM,3.02 µM,"Inhibition type, hCA I ([3]; Lineweaver–Burk plot): non-competitive; Ki ([3]; from Lineweaver–Burk plot): 2.38 µM; Inhibition type, hCA II ([4]; Lineweaver–Burk plot): non-competitive; Ki ([4]; from Lineweaver–Burk plot): 2.97 µM"
COc1ccccc1OCCNCC(O)COc1cccc2[nH]c3ccccc3c12 (stereo not shown) [Carvedilol],20.2 µM,79 µM,61.2 µM,46.4 µM,
O=C(NC[C@H]1CN(c2ccc(N3CCOCC3=O)cc2)C(=O)O1)c1ccc(Cl)s1 [Rivaroxaban],189 µM,204 µM,220 µM,244 µM,
CCOc1nc2cccc(C(=O)OC(C)OC(=O)OC3CCCCC3)c2n1Cc1ccc(-c2ccccc2-c2nnn[nH]2)cc1 (stereo not shown) [Candesartan cilexetil],342 µM,271 µM,185 µM,177 µM,
CC(=O)Oc1cc2c(s1)CCN(C(C(=O)C1CC1)c1ccccc1F)C2 (stereo not shown) [Prasugrel],330 µM,205 µM,155 µM,429 µM,
CN1CCc2nc(C(=O)N[C@@H]3C[C@@H](C(=O)N(C)C)CC[C@@H]3NC(=O)C(=O)Nc3ccc(Cl)cn3)sc2C1 [Edoxaban],45.5 µM,67 µM,94 µM,34.2 µM,
COc1ccccc1OCC(O)CN1CCN(CC(=O)Nc2c(C)cccc2C)CC1 (stereo not shown) [Ranolazine],600 µM,544 µM,503 µM,645 µM,
CCCCC1=NC2(CCCC2)C(=O)N1Cc1ccc(-c2ccccc2-c2nnn[nH]2)cc1 [Irbesartan],345 µM,239 µM,235 µM,335 µM,
COCCc1ccc(OCC(O)CNC(C)C)cc1 (stereo not shown) [Metoprolol succinate],319 µM,168 µM,400 µM,329 µM,
CCOC(=O)C1=C(COCCN)NC(C)=C(C(=O)OC)C1c1ccccc1Cl (stereo not shown) [Amlodipine],38.5 µM,126 µM,133 µM,38.8 µM,IC50 (aldehyde oxidase): 5.5 µM
